According to patent US7910559B2, “Decladinosyl-macrolides with anti-inflammatory activity” (GlaxoSmithKline istrazivacki centar Zagreb d.o.o., priority 2005, dated 2011):

Experiments:
Type in all cases: cell-based
human TNF-α = assay: Inhibition of TNF-α production by stimulated human peripheral blood leukocytes in vitro (ELISA); conditions: PBL
Protocol: (§1) Substances, used in in vitro experiments, were dissolved in dimethyl sulfoxide (DMSO) (Kemika, Croatia) at concentrations of 50 mM and 10 mM and were further diluted to the final concentrations of […] in 1 mL Dulbecco's modified Eagle medium (DMEM) supplemented with 1% heat inactivated fetal bovine serum (FBS), 1% glutamax, 50 U/ml penicillin, 50 μg/ml streptomycin and 2.5 μg/mL Fungizone (amphotericin B). Media and all media supplements were purchased from Gibco, Australia, except FBS that was from Sigma, USA.
(§2) Peripheral blood leukocytes (PBL) were obtained from venous blood of healthy volunteers by sedimentation on 2% dextran T-500 (Amersham Biosciences, USA) and subsequent centrifugations of leukocyte-rich plasma.
(§3) Peripheral blood leukocytes (PBL), isolated as described above, were seeded in a 48-well plate at a concentration of 3-5×10^6 cell per well in culture medium consisting of RPMI 1640 medium (Institute of Immunology, Croatia) supplemented with 10% heat-inactivated fetal calf serum (FCS, Biowhittaker, USA), 100 U/ml penicillin (Gibco, Australia), 100 μg/ml streptomycin (Gibco, Australia) and 2 mM L-glutamine (Gibco, Australia), and preincubated with the tested compounds for 2 h at 37° C., in an atmosphere of 5% CO2, and 90% humidity. Afterwards, stimuli (Sigma, USA) were added to a final concentration of 2 μg/mL lipopolysaccharide (LPS), 1 μg/mL phorbol 12-myristate 13-acetate (PMA) or 120 μg/mL zymosan. Samples were incubated overnight under conditions described above. At the end of incubation supernatants were transferred to eppendorf tubes and centrifuged for 10 min at 1500 g. Concentrations of human TNF-α, IL-1β, IL-6 and IL-8 were determined in cell supernatants by sandwich ELISA, using capture and detection antibodies (R&D, USA) according to manufacturer's recommendations.
(§4) Inhibition (as percentage) was calculated using the following formula: % inhibition=(1−concentration of cytokines in sample/concentration of cytokines in positive control)×100 where “positive control” refers to stimulated samples not treated with substances.

human IL-1β = assay: Inhibition of IL-1β production by stimulated human peripheral blood leukocytes in vitro (ELISA); conditions: PBL
Protocol: as §1, §2, §3, §4

human IL-6 = assay: Inhibition of IL-6 production by stimulated human peripheral blood leukocytes in vitro (ELISA); conditions: PBL
Protocol: as §1, §2, §3, §4

human IL-8 = assay: Inhibition of IL-8 production by stimulated human peripheral blood leukocytes in vitro (ELISA); conditions: PBL
Protocol: as §1, §2, §3, §4

[1] = system: human peripheral blood mononuclear cells (PBMC); assay: Human peripheral blood mononuclear cell proliferation in vitro ((3H)thymidine incorporation)
Protocol: as §1
Heparinized peripheral blood was obtained from healthy donors, and peripheral blood mononuclear cells (PBMC) were isolated by Histopaque 1077 (Sigma, USA) density centrifugation at 400 g for 30 minutes. Collected PBMC were centrifuged in plasma at 400 g/10 min, resuspended and washed in RPMI 1640 (Institute of Immunology, Croatia) by centrifugation.
Influence of substances at two different concentrations (50 μM and 10 μM) on proliferation of human peripheral blood mononuclear cells (PBMC) was assessed.
Heparinized peripheral blood was obtained from healthy donors, and PBMC were isolated by Histopaque 1077 (Sigma, USA) density centrifugation at 400 g for 30 minutes. 5×10^4 cells/well were cultured for 3 days in the RPMI medium as described above, in the presence (positive control) or absence (negative control) of stimulators [PHA (2.5 μg/mL) (Sigma, USA) or both PMA (10 ng/mL) (Sigma, USA) and ionomycin (500 ng/mL) (Calbiochem, USA)] and tested substances at 37° C. in 5% CO2 and 90% humidity. The cells were pulsed with 1 μCi of (^3H)thymidine (Amersham, USA) per well during the last 18 h of the cultures and were harvested on a 96-well filter (Packard Bioscience, USA) with a multiple cell harvester (Packard, USA). The incorporation of (^3H)thymidine in activated cells was measured by TopCount NXT (Packard, USA).
Inhibition of cell proliferation (as a percentage) was calculated using the following formula: % inhibition=(1−(^3H)thymidine incorporation expressed in counts per minute (cpm) in sample/(3H)thymidine incorporation expressed in cpm in positive control)×100 where “positive control” refers to stimulated samples not treated with substances.

[2] = LPS stimulation, compound 10 μM
[3] = LPS stimulation, compound 50 μM
[4] = PMA stimulation, compound 10 μM
[5] = PMA stimulation, compound 50 μM
[6] = zymosan stimulation, compound 10 μM
[7] = zymosan stimulation, compound 50 μM

3-O-(3-Diethylamino-propionyl)-3-O-decladinosyl-6-O-methyl-9a-aza-9a-homoerythromycin A [Example 2]
Percentage of inhibition of TNF-α production (human TNF-α; [2]): 37%
Percentage of inhibition of TNF-α production (human TNF-α; [3]): 80%
Percentage of inhibition of TNF-α production (human TNF-α; [4]): 34%
Percentage of inhibition of TNF-α production (human TNF-α; [5]): 55%
Percentage of inhibition of TNF-α production (human TNF-α; [6]): 13%
Percentage of inhibition of TNF-α production (human TNF-α; [7]): 60%
Percentage of inhibition of IL-1β production (human IL-1β; [2]): 83%
Percentage of inhibition of IL-1β production (human IL-1β; [3]): 91%
Percentage of inhibition of IL-1β production (human IL-1β; [4]): 60%
Percentage of inhibition of IL-1β production (human IL-1β; [5]): 78%
Percentage of inhibition of IL-1β production (human IL-1β; [6]): 96%
Percentage of inhibition of IL-1β production (human IL-1β; [7]): 94%
Percentage of inhibition of IL-6 production (human IL-6; [2]): 40%
Percentage of inhibition of IL-6 production (human IL-6; [3]): 94%
Percentage of inhibition of IL-6 production (human IL-6; [4]): 17%
Percentage of inhibition of IL-6 production (human IL-6; [5]): 68%
Percentage of inhibition of IL-6 production (human IL-6; [6]): 45%
Percentage of inhibition of IL-6 production (human IL-6; [7]): 91%
Percentage of inhibition of IL-8 production (human IL-8; [2]): 40%
Percentage of inhibition of IL-8 production (human IL-8; [3]): 96%
Percentage of inhibition of IL-8 production (human IL-8; [4]): 0%
Percentage of inhibition of IL-8 production (human IL-8; [5]): 92%
Percentage of inhibition of IL-8 production (human IL-8; [6]): 32%
Percentage of inhibition of IL-8 production (human IL-8; [7]): 87%
Percentage of inhibition of proliferation of stimulated PBMC ([1]; PHA stimulation, compound 10 μM): 80%
Percentage of inhibition of proliferation of stimulated PBMC ([1]; PHA stimulation, compound 50 μM): 98%
Percentage of inhibition of proliferation of stimulated PBMC ([1]; PMA + ionomycin stimulation, compound 10 μM): 0%
Percentage of inhibition of proliferation of stimulated PBMC ([1]; PMA + ionomycin stimulation, compound 50 μM): 99%
